The values that follow come from ChEMBL document CHEMBL1201862, “PubChem BioAssay data set” (2004).

Assay [1] deals with Voltage-gated inwardly rectifying potassium channel KCNH2 (Homo sapiens, UniProt Q12809). The assay can be described thus: concentration-dependent hERG rescue from blockers – cell-based, thallium flux, dose response (AID 2121). Format: ADME.
A further assay deals with Genome polyprotein (dengue virus type 2, UniProt P29990). The experiment in a line: flavivirus cap methylation enzyme inhibition – biochemical, confirmation dose response, primary screen (AID 588689). Format: functional.
Assay [2] is described as follows: CCR5-tropic HIV-1 fusion blockers – cell-based, CCR5-tropic Env, dose response (AID 2279). It counts as functional.
In the next assay the target is Major prion protein (Homo sapiens, UniProt P04156). Format: functional, cell-based.
Assay [3] addresses NAD-dependent protein deacylase sirtuin-5, mitochondrial (Homo sapiens, UniProt Q9NXA8). The experiment in a line: sirtuin-5 deacylation blockers, concentration series – biochemical, fluorescence imaging, cherry-pick, set 5, dose response (AID 720591).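 Also: desuccinylation of succinyl peptide AMC substrate read as fluorescence after trypsin release; potency of inhibitors that lower fluorescence and may act on trypsin instead.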
The target of another assay is Prothrombin (Homo sapiens, UniProt P00734). The experiment in a line: Thrombin 1536 HTS Dose Response Confirmation. [Related pubchem assays: 1046 (Thrombin 1536 HTS; hits were confirmed in this assay)]. It counts as functional.
The nature of assay [4]: OVCAR8 cell viability loss – plate reader, dry powder samples, PAX8 project, dose response (AID 743197). Format: functional, cell-based. To be noted: OVCAR-8.
For another assay, the target named is Paired box protein Pax-8 (Homo sapiens, UniProt Q06710). The experiment in a line: PAX8 transcriptional activity inhibition in RMG-I – RMG-I cells, luciferase, cherry-pick, dose response (AID 687027).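 Also: luciferase reporter driven by Pax8 target thyroperoxidase promoter measured by SteadyGlo luminescence.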 Format: functional, cell-based.
Assay [5] can be described thus: A2780 cell killing – plate reader, dry powder samples, cytotoxicity control, dose response (AID 743046). It counts as functional, cell-based.
A short description of assay [6]: growth inhibition of yeast DHODH-expressing 3D7 parasites – SYBR Green, dry powder samples, dose response (AID 1159570).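 Also: parasite growth measured after 72 hours of compound exposure.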 It counts as functional, cell-based.
The nature of assay [7]: growth inhibition of PfATP4-mutant resistant parasites – NITD609-resistant line, SYBR Green, dry powder, dose response (AID 1159571).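 Also: parasites synchronized at ring stage by sorbitol before testing.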 It counts as functional, cell-based.
Assay [8] is described as follows: P. falciparum Dd2 growth inhibitors, dose response, SYBR Green, cherry-picked samples (AID 1159567). Format: functional, cell-based.
Assay [9] is described as follows: Dd2 malaria parasite growth inhibition potency – SYBR Green, dry powder samples, dose response (AID 1159566).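 Also: potency for growth inhibition with lower SYBR green DNA signal.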 It counts as functional, cell-based.
A short description of assay [10]: toxicity to human HepG2 hepatoma cells – cell-based, plate reader, dry powder samples, cytotoxicity control, dose response (AID 1159569).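 Also: inhibitor potency with signal falling toward the positive control level.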 Format: functional.
A further assay has as its target T1, Estrogen receptor (Homo sapiens, UniProt P03372).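 Also: potency for inhibiting coactivator peptide recruitment to the receptor.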
T1 sequence (P03372 whole entry): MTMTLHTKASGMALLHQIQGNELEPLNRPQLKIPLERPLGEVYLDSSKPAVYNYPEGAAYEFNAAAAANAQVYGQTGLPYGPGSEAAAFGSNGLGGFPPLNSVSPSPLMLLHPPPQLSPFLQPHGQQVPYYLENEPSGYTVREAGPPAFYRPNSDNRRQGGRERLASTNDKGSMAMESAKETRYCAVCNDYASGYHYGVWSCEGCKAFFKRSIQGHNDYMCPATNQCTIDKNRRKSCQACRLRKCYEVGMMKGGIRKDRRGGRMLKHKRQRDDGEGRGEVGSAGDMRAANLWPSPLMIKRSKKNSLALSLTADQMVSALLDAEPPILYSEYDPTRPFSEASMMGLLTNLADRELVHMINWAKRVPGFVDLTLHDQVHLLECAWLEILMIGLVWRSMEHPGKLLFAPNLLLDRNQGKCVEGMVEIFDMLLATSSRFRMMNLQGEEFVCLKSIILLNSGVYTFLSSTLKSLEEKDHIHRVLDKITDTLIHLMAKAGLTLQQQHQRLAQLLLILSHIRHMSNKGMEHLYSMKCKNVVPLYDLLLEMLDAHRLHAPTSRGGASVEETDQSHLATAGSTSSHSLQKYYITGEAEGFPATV

Assay [11] is described as follows: OVCAR-3 cell viability loss – plate reader, dry powder samples, PAX8 inhibitor project, dose response (AID 743044). It counts as functional, cell-based.
Assay [12] is described as follows: HEK-293T viability loss after treatment – luminescence, T-cell screen hits, cytotoxicity control for TCR NF-kB inhibitor project, dose response (AID 489026).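 Also: cells exposed to compound about 14 hours before the viability readout.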 It counts as functional, cell-based.
Assay [13] in a line: blockers of CRF-binding protein–CRF-R2 complex – cell-based, uHTS hits, 384-well, dose response (AID 651639). The note with it: read-out: IC50_Mean. It counts as functional, Homo sapiens.
For assay [14], the target named is T2, Corticotropin-releasing factor receptor 2/Corticotropin-releasing factor-binding protein (Homo sapiens, UniProt P24387+Q13324).
T2 sequence (Q13324 whole entry): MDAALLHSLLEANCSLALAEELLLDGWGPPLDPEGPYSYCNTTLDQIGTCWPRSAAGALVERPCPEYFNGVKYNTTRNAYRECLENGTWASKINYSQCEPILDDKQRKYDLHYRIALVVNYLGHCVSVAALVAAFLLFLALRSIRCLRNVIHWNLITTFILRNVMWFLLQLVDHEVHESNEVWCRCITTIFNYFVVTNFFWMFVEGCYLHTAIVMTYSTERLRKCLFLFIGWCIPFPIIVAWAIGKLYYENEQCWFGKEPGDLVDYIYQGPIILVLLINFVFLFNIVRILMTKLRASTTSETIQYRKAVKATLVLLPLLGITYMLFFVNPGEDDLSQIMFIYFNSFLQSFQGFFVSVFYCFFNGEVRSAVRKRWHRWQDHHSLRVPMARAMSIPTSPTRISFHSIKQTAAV
T2 sequence (P24387 whole entry): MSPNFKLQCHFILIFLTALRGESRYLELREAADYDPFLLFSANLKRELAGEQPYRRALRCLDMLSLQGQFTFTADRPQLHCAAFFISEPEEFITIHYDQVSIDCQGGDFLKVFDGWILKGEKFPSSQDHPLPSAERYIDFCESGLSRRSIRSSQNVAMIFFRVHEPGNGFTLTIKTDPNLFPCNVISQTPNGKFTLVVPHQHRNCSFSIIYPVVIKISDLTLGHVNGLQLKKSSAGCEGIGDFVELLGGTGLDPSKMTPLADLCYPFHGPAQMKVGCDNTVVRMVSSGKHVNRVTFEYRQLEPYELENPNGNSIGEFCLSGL
The experiment in a line: activators of CRF receptor 2 with binding protein – uHTS hits, confirmation (AID 602473). It counts as functional. The note with it: read-out: EC50_Mean.

Assay [15] deals with T2, Corticotropin-releasing factor receptor 2/Corticotropin-releasing factor-binding protein. The assay can be described thus: Dose Response confirmation of uHTS hits for small molecule antagonists of the CRF-binding protein and CRF-R2 receptor complex. Format: functional. To be noted: read-out: IC50_Mean.
A short description of assay [16]: Luminescence-based cell-based high throughput dose response assay to identify activators of the DAF-12 from the parasite S. stercoralis (ssDAF-12). It counts as functional.

Molecules are shown by their SMILES. Active and inactive are the calls of the source. Bounds are passed on as bounds.

As for `CN(C(=S)NC(=O)c1ccc(F)cc1)C1CCCCC1`, the EC50 in assay [1] was 8.79 µM (active).

For the compound `O=C(CCN1C(=O)/C(=C\C=C\c2ccccc2)SC1=S)Nc1ccccc1C(=O)O`, the IC50 on Genome polyprotein is 64.3 µM (active); in [2], > 50 µM (active). A word on the AC50: it is the midpoint of the concentration-response curve, whichever way the signal moves. In the case of `CCc1c(C)nc2c(Br)cccc2c1SCCC#N`, the IC50 at Major prion protein is 2.52 µM (active); in the assay “cells”, > 138 µM (inactive). Also, in assay [3], the AC50 was > 30 µM (inactive). As for `CCc1nnc(NC(=O)CCC(=O)N2CCCC2)s1`, at Prothrombin, the IC50 was > 50 µM (not active). As for `NNC(=O)CN1C(=O)Nc2ccc(Br)cc2C1c1ccccc1` (stereo not given), the IC50 against Prothrombin was > 50 µM (not active).

Take `COc1ccc(NC(=O)Nc2ccc3c(c2)C(=O)N([C@H](C)CO)C[C@@H](C)[C@@H](CN(C)C(=O)Cc2ccccc2)OCCCC[C@H](C)O3)cc1`: the AC50 in assay [4] was > 70 µM (inactive); at Paired box protein Pax-8, 30.9 µM (active); in assay [5], 16.6 µM (active). On to `O=C1N2CCSC2=NC1(NS(=O)(=O)c1ccccc1)C(F)(F)F` (stereo not given), for which the EC50 in assay [1] is 2.27 µM (active). Consider `C[C@@H]1CN([C@H](C)CO)C(=O)c2ccccc2-c2ccccc2CO[C@H]1CN(C)C(=O)Nc1cccc(Cl)c1Cl`, for which the AC50 in [6] is 0.466 µM (active); in [7] it was 1.65 µM (active); in assay [8], 1.01 µM (active); in [9], 0.56 µM (active); in assay [10] it was > 100 µM (inactive). As to `Cc1cccc(NC(=S)NC(=O)c2cc(-c3ccccc3)nc3ccccc23)c1`, in [1], the EC50 is 0.53 µM (active). For `CCC(C)n1nc(O)cc1N` (stereo not given), the IC50 at Estrogen receptor is > 50 µM (not active). In the case of `Cc1cc(C2C(=O)c3ccccc3C2=O)c(C)c(C)c1C`, the AC50 in [3] is > 30 µM (inactive). As for `C[C@@H]1CN([C@@H](C)CO)C(=O)Cc2cc(NC(=O)NC3CCCCC3)ccc2O[C@H]1CN(C)Cc1ccc(-c2ccccc2)cc1`, the half-maximal activity concentration (AC50) in [4] is 34 µM (active); on Paired box protein Pax-8, 8.66 µM (active); in assay [5], 31.8 µM (active); in assay [11], 49.5 µM (active).

Take `CCOC(=O)c1c(C)[nH]c(C)c1C(=O)COC(=O)c1ccccc1O`: in assay [3], the AC50 was 20 µM (active). For the compound `COc1cc(C(=O)Nc2ccc3c(c2)ncn3C)cc(OC)c1OC`, the IC50 on Major prion protein was 6.23 µM (active); in assay [12], > 80 µM (inactive); in “cells”, > 138 µM (inactive). On to `CCN1C(=O)C2(C(C(=O)c3cc4ccccc4o3)=C(O)C(=O)N2CCCN2CCOCC2)c2ccccc21` (stereo not given), for which the figures for the IC50 at Major prion protein and in “cells” were 2.08 µM (active) and > 138 µM (inactive), respectively. Regarding `COc1ccc(NC(=O)c2c(F)cccc2F)cc1S(=O)(=O)Nc1ccc(Br)cc1`, the figures for the IC50 in assay [13] and in assay [15] were 18.9 µM (active) and 20 µM (active), respectively. The EC50 in assay [14] was > 53 µM (inactive). On to `COc1ccc(NC(=O)N2CCCCN3[C@H](CO)[C@H](c4ccc(C#CCC(C)C)cc4)[C@@H]3C2)cc1`, for which the AC50 in assay [6] is 0.209 µM (active); in assay [7], 0.264 µM (active); in assay [8] it was 0.636 µM (active); in assay [9], 0.418 µM (active); in assay [10], > 100 µM (inactive). `CCOC(=O)N1CCN(C(=O)C2CCCN(S(=O)(=O)c3cc(C)ccc3OC)C2)CC1` (stereo not given): at Prothrombin, the IC50 is given as > 50 µM (not active). Turning to `Cc1cc(NC(=O)CSc2nc(O)c(C#N)c(-c3ccccc3)n2)no1`, the figures for the IC50 at Major prion protein and in “cells” were 7.14 µM (active) and > 138 µM (inactive), respectively.

For the compound `NC(=O)c1cccnc1Nc1cccc([N+](=O)[O-])c1`, the EC50 in assay [1] was 2.98 µM (active). For `COc1ccc(C(=O)C2CCCN(Cc3c[nH]nc3-c3ccccc3)C2)cc1OC` (stereo not given), in assay [3], the AC50 was > 30 µM (inactive). In the case of `O=C(NCc1ccccc1)C1=C[C@@H](c2coc3ccccc3c2=O)C[C@@H](OCCCCO)O1`, at Prothrombin, the IC50 was > 50 µM (not active). As to `Cc1cc2oc(C(=O)NCC(c3ccco3)N3CCCC3)c(C)c2cc1C` (stereo not given), the IC50 in [16] is > 67.6 µM (inactive).
